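How tested: cells in 96-well plates exposed to compound for 48 hours at five concentrations. The concentration for 50% growth inhibition is given as GI50.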 Activity calls are given as the source filed them. No stated cut-off is given here; in the data, active = GI50 up to about 1.1 µM and inactive = higher.
What was measured:
Test in all cases: NCI-60 cell line screen, 48 h
[1] = test system: SNB-78
[2] = test system: SK-OV-3
[3] = test system: HOP-92
[4] = test system: SF-295
[5] = test system: DLD-1
[6] = test system: OVCAR-3
[7] = test system: UO-31
[8] = test system: M19-MEL
[9] = test system: SNB-19
[10] = test system: KM-20L2
[11] = test system: A498
[12] = test system: DMS-273
[13] = test system: NCI-H23
[14] = test system: BT-549
[15] = test system: T47D
[16] = test system: MDA-MB-435
[17] = test system: MDA-MB-231
[18] = test system: OVCAR-4
[19] = test system: Hs-578T
[20] = test system: SR

Compound | GI50 [1] | GI50 [2] | GI50 [3] | GI50 [4] | GI50 [5] | GI50 [6] | GI50 [7] | GI50 [8] | GI50 [9] | GI50 [10] | GI50 [11] | GI50 [12] | GI50 [13] | GI50 [14] | GI50 [15] | GI50 [16] | GI50 [17] | GI50 [18] | GI50 [19] | GI50 [20]
C=C1CC[C@@H](Br)C(C)(C)[C@]12CCC(C)(O)C(Cl)C2 (stereo partly specified) | 52.5 µM (inactive) | 19.5 µM (inactive) | 23 µM (inactive) | 20.6 µM (inactive) | 17.5 µM (inactive) | 20.3 µM (inactive) | 18.1 µM (inactive) | 18.8 µM (inactive) | 19.8 µM (inactive) | 18.3 µM (inactive) | 28.9 µM (inactive) | 18.8 µM (inactive) | 26.1 µM (inactive) |  |  |  |  |  |  | 
CC(=O)/N=C1\N/C(=C/c2cc([N+](=O)[O-])ccc2O)CN1C |  | > 100 µM (inactive) | > 100 µM (inactive) | > 100 µM (inactive) |  | > 100 µM (inactive) | > 100 µM (inactive) |  | > 100 µM (inactive) |  |  |  | > 100 µM (inactive) | > 100 µM (inactive) | > 100 µM (inactive) | > 100 µM (inactive) | > 100 µM (inactive) | > 100 µM (inactive) |  | 
N#Cc1c(Cl)cc(Cl)n2c1nc1ccccc12 |  | 16.9 µM (inactive) | 4.85 µM (inactive) | 17.3 µM (inactive) |  | 6 µM (inactive) | 3.63 µM (inactive) |  | 22 µM (inactive) |  | 22 µM (inactive) |  | 18.2 µM (inactive) | 6.38 µM (inactive) | 5.64 µM (inactive) | 11.5 µM (inactive) | 6.49 µM (inactive) | 10.4 µM (inactive) | 11 µM (inactive) | 5.18 µM (inactive)
CC(=O)O[C@H]1CC[C@H]2[C@@H]3CCC(C(C)=O)[C@H](C(=O)O)[C@H]3CC[C@]12C (stereo partly specified) |  | > 100 µM (inactive) | > 100 µM (inactive) | > 100 µM (inactive) |  | > 100 µM (inactive) | > 100 µM (inactive) |  | > 100 µM (inactive) |  | > 100 µM (inactive) |  | > 100 µM (inactive) | > 100 µM (inactive) |  | > 100 µM (inactive) | > 100 µM (inactive) | > 100 µM (inactive) | > 100 µM (inactive) | > 100 µM (inactive)
O=c1oc2ccccc2n1P(=O)(Oc1ccc(Cl)cc1)n1c(=O)oc2ccccc21 | > 100 µM (inactive) | > 100 µM (inactive) | > 100 µM (inactive) | 93.8 µM (inactive) | > 100 µM (inactive) | > 100 µM (inactive) | > 100 µM (inactive) | > 100 µM (inactive) | > 100 µM (inactive) | > 100 µM (inactive) | > 100 µM (inactive) | 78.9 µM (inactive) | > 100 µM (inactive) |  |  |  |  | > 100 µM (inactive) |  | > 100 µM (inactive)
CC1=C(SCCO)C(=O)c2ccccc2C1=O |  | 16 µM (inactive) | 1.7 µM (inactive) | 17.2 µM (inactive) |  | 2.82 µM (inactive) | 8.63 µM (inactive) |  | 25.4 µM (inactive) |  | 16.9 µM (inactive) |  | 12.6 µM (inactive) | 17.8 µM (inactive) | 3.21 µM (inactive) | 11.6 µM (inactive) | 13.7 µM (inactive) | 3.31 µM (inactive) | 12.2 µM (inactive) | 3.21 µM (inactive)
N#C/C(=C\c1ccc(Cl)cc1)c1nc2ccccc2c(=O)[nH]1 |  | > 100 µM (inactive) | 11 µM (inactive) | 47.4 µM (inactive) |  |  | > 100 µM (inactive) |  | 85.9 µM (inactive) |  |  |  |  | 23.4 µM (inactive) | > 100 µM (inactive) | > 100 µM (inactive) | 33.8 µM (inactive) | > 100 µM (inactive) | 17.9 µM (inactive) | > 100 µM (inactive)
CCOc1ncn(-c2ccc(NC(=S)Nc3cccc(O)c3)cc2)n1 |  | > 100 µM (inactive) | > 100 µM (inactive) | > 100 µM (inactive) |  | > 100 µM (inactive) | > 100 µM (inactive) |  | > 100 µM (inactive) |  |  |  | > 100 µM (inactive) | > 100 µM (inactive) | > 100 µM (inactive) | > 100 µM (inactive) | > 100 µM (inactive) | > 100 µM (inactive) |  | > 100 µM (inactive)
CCCCC(CC)C(=O)Oc1ccc(C(=O)c2ccccc2)c(O)c1 (stereo unspecified) |  | > 100 µM (inactive) | 23.2 µM (inactive) | 29.4 µM (inactive) |  | 40.5 µM (inactive) | 20.9 µM (inactive) |  | 68.9 µM (inactive) |  | 45.9 µM (inactive) |  | 35.2 µM (inactive) | 39.1 µM (inactive) | 45.7 µM (inactive) | 35.8 µM (inactive) | > 100 µM (inactive) | 31 µM (inactive) | 20.6 µM (inactive) | 
CCOC(=O)CCc1c(C)c2c(O)cc(O)cc2oc1=O | > 100 µM (inactive) | > 100 µM (inactive) | > 100 µM (inactive) | > 68.9 µM (inactive) | > 100 µM (inactive) | > 100 µM (inactive) | > 87.1 µM (inactive) | > 100 µM (inactive) | > 84.1 µM (inactive) | > 100 µM (inactive) | > 100 µM (inactive) | > 100 µM (inactive) | > 100 µM (inactive) |  |  |  |  | > 100 µM (inactive) |  | 
CC12CCC(=O)N1c1cnccc1N2 (stereo unspecified) | > 100 µM (inactive) | > 100 µM (inactive) | > 100 µM (inactive) | > 100 µM (inactive) | > 100 µM (inactive) | > 100 µM (inactive) | > 100 µM (inactive) |  | > 100 µM (inactive) | > 100 µM (inactive) | > 100 µM (inactive) | > 100 µM (inactive) | > 100 µM (inactive) |  |  |  |  | > 100 µM (inactive) |  | > 100 µM (inactive)
O=C1C=CC=C/C1=C1\N=C(c2ccccc2OCC(=O)c2ccccc2)SS1 |  | > 100 µM (inactive) | > 100 µM (inactive) | 74.5 µM (inactive) |  | > 100 µM (inactive) | > 100 µM (inactive) |  | > 100 µM (inactive) |  | > 100 µM (inactive) |  | > 100 µM (inactive) | 46.1 µM (inactive) |  | > 100 µM (inactive) | > 100 µM (inactive) | > 100 µM (inactive) | 26.9 µM (inactive) | 
Nc1c(S(=O)(=O)O)cc(S(=O)(=O)O)c2ccc(/N=N/c3ccc(/C=C/c4ccc(/N=N/c5ccc6c(S(=O)(=O)O)cc(S(=O)(=O)O)c(N)c6c5O)cc4S(=O)(=O)O)c(S(=O)(=O)O)c3)c(O)c12 | > 83.4 µM (inactive) | 97.1 µM (inactive) | 35.6 µM (inactive) | > 100 µM (inactive) | > 100 µM (inactive) | > 100 µM (inactive) | 37.1 µM (inactive) | > 100 µM (inactive) | > 100 µM (inactive) | 79.4 µM (inactive) | > 100 µM (inactive) | > 100 µM (inactive) | > 100 µM (inactive) |  |  |  |  | > 57.9 µM (inactive) |  | 
Clc1cc(N/N=C(\c2ccccc2)c2ccccn2)ncn1 |  | 0.301 µM (active) | 2.44 µM (inactive) | 0.502 µM (active) |  | 0.0223 µM (active) | 0.324 µM (active) |  | 1.85 µM (inactive) |  |  |  | 0.0904 µM (active) | 4.21 µM (inactive) | < 0.01 µM (active) | 1.02 µM (active) | 0.0252 µM (active) | 10.9 µM (inactive) | 3.38 µM (inactive) | 0.0942 µM (active)
CCCCCCCCCCCCCCCc1nnc(S)[nH]1 | > 100 µM (inactive) | > 100 µM (inactive) |  |  | > 10 µM (inactive) | > 100 µM (inactive) | 24 µM (inactive) | > 100 µM (inactive) | > 100 µM (inactive) |  | > 100 µM (inactive) |  | > 100 µM (inactive) |  |  |  |  | 46.1 µM (inactive) |  | 29.6 µM (inactive)
O=C1OC(CN2CCOCC2)CN1/N=C/c1ccc([N+](=O)[O-])o1 (stereo unspecified) [FURALTADONE] |  | 74.6 µM (inactive) | 64.4 µM (inactive) | 34.9 µM (inactive) |  | 21.9 µM (inactive) | 97.1 µM (inactive) |  | 86.1 µM (inactive) |  |  |  | 22.9 µM (inactive) | 86.1 µM (inactive) | 28.8 µM (inactive) | 18 µM (inactive) | 33.3 µM (inactive) | 45.5 µM (inactive) | 54.6 µM (inactive) | 36.8 µM (inactive)
O=C(NN1C(=O)CSC1c1ccc(C(F)(F)F)cc1)c1ccncc1 (stereo unspecified) | > 31.6 µM (inactive) | > 100 µM (inactive) | > 100 µM (inactive) | > 100 µM (inactive) | > 100 µM (inactive) | > 100 µM (inactive) | > 100 µM (inactive) | > 100 µM (inactive) | > 100 µM (inactive) | > 100 µM (inactive) | > 31.6 µM (inactive) | > 100 µM (inactive) | > 100 µM (inactive) |  |  |  |  | > 100 µM (inactive) |  | 
CC1(C)OC[C@H](C(=N)OCc2ccccc2)O1 | > 100 µM (inactive) | > 100 µM (inactive) | > 100 µM (inactive) | > 100 µM (inactive) | > 100 µM (inactive) | > 100 µM (inactive) | > 100 µM (inactive) | > 100 µM (inactive) | > 100 µM (inactive) | > 100 µM (inactive) | > 100 µM (inactive) | > 100 µM (inactive) | > 100 µM (inactive) |  |  |  |  | > 100 µM (inactive) |  | > 100 µM (inactive)
